According to ChEMBL document CHEMBL5030561, “Discovery of novel aminosaccharide-based sulfonamide derivatives as potential carbonic anhydrase II inhibitors” (Bioorg Med Chem Lett, 2021):

Key:
[1] = Cytotoxicity against HCEC cells assessed as cell viability at 2 % by MTT assay relative to control; type: cell-based; settings: human, read-out: Activity
in vitro [2] = settings: mouse, liver microsomes
Description: Metabolic stability in mouse liver microsomes assessed as clearance

[3] = Solubility of compound in water; type: physicochemical; settings: buffer
Carbonic anhydrase 9 = Carbonic anhydrase 9 (Homo sapiens, UniProt Q16790); assay: Inhibition of recombinant human CA9 using 4-nitrophenylacetate as substrate by esterase assay
[4] = Cytotoxicity against HCEC cells assessed as cell viability at 1% by MTT assay relative to control; type: cell-based; settings: human, read-out: Activity
in vitro [5] = settings: mouse, liver microsomes; remark: listed apart in the source
Description: Metabolic stability in mouse liver microsomes assessed as half-life

Homo sapiens [6] = species on record: Homo sapiens; assay: Selectivity ratio of IC50 for inhibition of recombinant human CA9 to IC50 for inhibition of recombinant CA2 using 4-nitrophenylacetate as substrate by esterase assay
Homo sapiens [7] = species on record: Homo sapiens; assay: Selectivity ratio of IC50 for inhibition of recombinant human CA1 to IC50 for inhibition of recombinant human CA2 using 4-nitrophenylacetate as substrate by esterase assay
Carbonic anhydrase 1 = Carbonic anhydrase 1 (Homo sapiens, UniProt P00915); assay: Inhibition of recombinant human CA1 using 4-nitrophenylacetate as substrate by esterase assay
Carbonic anhydrase 2 = Carbonic anhydrase 2 (Homo sapiens, UniProt P00918)
Description: Inhibition of recombinant human CA2 using 4-nitrophenylacetate as substrate by esterase assay

Sequence of Carbonic anhydrase 1 (P00915 whole entry): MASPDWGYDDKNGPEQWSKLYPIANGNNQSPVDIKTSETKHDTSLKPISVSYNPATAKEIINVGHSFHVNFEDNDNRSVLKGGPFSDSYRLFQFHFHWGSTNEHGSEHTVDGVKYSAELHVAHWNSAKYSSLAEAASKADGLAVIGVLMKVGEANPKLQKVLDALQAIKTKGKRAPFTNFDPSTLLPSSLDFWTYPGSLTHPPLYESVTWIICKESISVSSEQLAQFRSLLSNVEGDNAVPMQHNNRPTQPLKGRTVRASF

SMILES | viability at 2 % [1] [%] | CLint scaled (in vitro [2]) [mL/min/kg] | solubility [3] [%] | IC50 (Carbonic anhydrase 9) [µM] | viability at 1 % [4] [%] | half-life (in vitro [5]) [h] | Selectivity ratio (Homo sapiens [6]) | Selectivity ratio (Homo sapiens [7]) | IC50 (Carbonic anhydrase 1) [µM] | IC50 (Carbonic anhydrase 2) [µM]
CCO[C@@H]1O[C@H](CNC(=O)c2ccc(S(N)(=O)=O)cc2)[C@H](O)[C@H](O)[C@H]1O | 71 | 1.5 | 2.1 | 0.18 | 76 | 61.1 |  |  |  | 
CC(=O)Nc1nnc(S(N)(=O)=O)s1 [ACETAZOLAMIDE] | 25 |  | 0.21 |  | 40 |  |  |  |  | 
CO[C@@H]1O[C@H](CNC(=O)c2ccc(S(N)(=O)=O)cc2)[C@@H](O)[C@H](O)[C@H]1N | 71 | 1.64 | 2.5 | 0.19 | 76 | 55.8 | 1.6 | 19 | 2.3 | 0.12
CCCO[C@@H]1O[C@H](CNC(=O)c2ccc(S(N)(=O)=O)cc2)[C@@H](O)[C@H](O)[C@H]1O | 71 | 1.53 | 2.1 | 0.16 | 76 | 59.9 |  |  |  | 
CO[C@@H]1O[C@H](CNC(=O)c2ccc(S(N)(=O)=O)cc2)[C@@H](O)[C@H](O)[C@@H]1O | 71 | 1.6 | 2.3 | 0.17 | 76 | 57.2 | 2.4 | 41 | 2.9 | 0.07
O=C(O)Cc1ccccc1Nc1c(Cl)cccc1Cl [DICLOFENAC] |  | 137 |  |  |  | 0.667 |  |  |  | 
CO[C@@H]1O[C@H](CNC(=O)c2ccc(S(N)(=O)=O)cc2)[C@H](O)[C@H](O)[C@H]1O | 71 | 1.52 | 2.1 | 0.2 | 76 | 60.4 | 3.3 | 45 | 2.7 | 0.06
CCCO[C@@H]1O[C@H](CNC(=O)c2ccc(S(N)(=O)=O)cc2)[C@@H](O)[C@H](O)[C@H]1N | 71 | 1.42 | 2.2 | 0.29 | 76 | 64.4 |  |  |  | 
CCN[C@H]1CN(CCCOC)S(=O)(=O)c2sc(S(N)(=O)=O)cc21 [BRINZOLAMIDE] |  |  | 0.05 |  |  |  |  |  |  | 
CCO[C@@H]1O[C@H](CNC(=O)c2ccc(S(N)(=O)=O)cc2)[C@@H](O)[C@H](O)[C@H]1N | 71 | 1.56 | 2.3 | 0.22 | 76 | 58.6 |  |  |  | 
CCO[C@@H]1O[C@H](CNC(=O)c2ccc(S(N)(=O)=O)cc2)[C@@H](O)[C@H](O)[C@@H]1O | 71 | 1.48 | 2 | 0.2 | 76 | 61.6 |  |  |  | 
CCCO[C@@H]1O[C@H](CNC(=O)c2ccc(S(N)(=O)=O)cc2)[C@@H](O)[C@H](O)[C@@H]1O | 71 | 1.42 | 2.1 | 0.26 | 76 | 64.5 |  |  |  | 
CCN[C@H]1C[C@H](C)S(=O)(=O)c2sc(S(N)(=O)=O)cc21 [DORZOLAMIDE] |  |  | 0.67 |  |  |  |  |  |  | 
CO[C@@H]1O[C@H](CNC(=O)c2ccc(S(N)(=O)=O)cc2)[C@@H](O)[C@H](O)[C@H]1O | 71 | 1.56 | 2.5 | 0.15 | 76 | 58.6 | 1.5 | 20 | 2 | 0.1
CCO[C@@H]1O[C@H](CNC(=O)c2ccc(S(N)(=O)=O)cc2)[C@@H](O)[C@H](O)[C@H]1O | 71 | 1.54 | 2.2 | 0.19 | 76 | 59.5 |  |  |  | 
CCCO[C@@H]1O[C@H](CNC(=O)c2ccc(S(N)(=O)=O)cc2)[C@H](O)[C@H](O)[C@H]1O | 71 | 1.38 | 2.2 | 0.22 | 76 | 66.4 |  |  |  | 
